Measured values: patent US8592417B2, “2-substituted-6-heterocyclic pyrimidone derivatives as tau protein kinase 1 inhibitors” (Mitsubishi Tanabe Pharma Corporation, priority 2006, dated 2013)

Target: T1, bovine cerebral TPK1 (Bos taurus, UniProt A0A3Q1MT31)
T1 construct: bovine cerebral TPK1; from tissue; host or cells: bovine brain (cerebrum)
Assay: Inhibitory activity against P-GS1 phosphorylation by bovine cerebral TPK1
Assay type: biochemical
Conditions: 41.7 μM [γ-32P] ATP, 25° C. for 2 hours
Experimental: Inhibitory Activity of the Medicament of the Present Invention Against P-GS1 Phosphorylation by Bovine Cerebral TPK1
A mixture containing 100 mM MES-sodium hydroxide (pH 6.5), 1 mM magnesium acetate, 0.5 mM EGTA, 5 mM β-mercaptoethanol, 0.02% Tween 20, 10% glycerol, 12 μg/ml P-GS1, 41.7 μM [γ^−32P] ATP (68 kBq/ml), bovine cerebral TPK1 and a compound shown in Table (a final mixture contained 1.7% DMSO deriving from a solution of a test compound prepared in the presence of 10% DMSO) was used as a reaction system. The phosphorylation was started by adding ATP, and the reaction was conducted at 25° C. for 2 hours, and then stopped by adding 21% perchloric acid on ice cooling. The reaction mixture was centrifuged at 12,000 rpm for 5 minutes and adsorbed on P81 paper (Whatmann), and then the paper was washed four times with 75 mM phosphoric acid, three times with water and once with acetone. The paper was dried, and the residual radioactivity was measured using a liquid scintillation counter.

T1 sequence (A0A3Q1MT31 1-419): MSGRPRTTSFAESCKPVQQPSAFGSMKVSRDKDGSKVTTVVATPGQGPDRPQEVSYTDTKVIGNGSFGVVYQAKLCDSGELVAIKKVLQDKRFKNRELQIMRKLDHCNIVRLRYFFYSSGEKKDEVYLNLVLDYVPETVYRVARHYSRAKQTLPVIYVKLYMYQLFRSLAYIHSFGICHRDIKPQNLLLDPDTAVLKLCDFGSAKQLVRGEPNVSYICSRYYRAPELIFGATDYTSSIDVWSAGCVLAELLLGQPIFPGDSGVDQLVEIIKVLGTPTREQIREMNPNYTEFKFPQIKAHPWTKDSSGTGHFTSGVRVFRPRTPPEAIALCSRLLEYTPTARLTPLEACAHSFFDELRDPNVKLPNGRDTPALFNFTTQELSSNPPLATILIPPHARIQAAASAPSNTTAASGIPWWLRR

Row | IC50 [µM] | Structure (SMILES)
1 | 0.0598 | O=c1cc(-c2ccncc2F)nc(N2CCO[C@@H](c3ccc(F)cc3)C2)[nH]1 [Compound 3, 2-[(2S)-2-(4-Fluoro-phenyl)-morpholin-4-yl]-6-(3-fluoro-pyridin-4-yl)-3H-pyrimidin-4-one]
2 | 0.0863 | O=c1cc(-c2ccncn2)nc(N2CCO[C@@H](c3ccc(F)cc3)C2)[nH]1 [Compound 2, 2-[(2S)-2-(4-Fluorophenyl)morpholin-4-yl]-1H-[4,4′]bipyrimidinyl-6-one]
